Data reported in patent US20200039939A1, “QUINOLINE AMINES USEFUL AS CYTOPROTECTIVE AGENTS” (priority 2015, published 2020).

What was measured:
Ob/ob mice = test: Effect of a SERCA agonist on the level of blood glucose; format: in vivo; settings: Mus musculus, ip, 96 h, 50 mg/kg i.p. once a day for 5 days, fasting glucose at baseline and 4 days after administration, read-out: Glucose level reduction
Protocol: Ob/ob mice (10 weeks old, n=7) were intraperitoneally (i.p.) injected with 100 μL of a solution containing 0 (vehicle) or 50 mg/kg of a test compound once a day for a total of 5 days. Fasting glucose was measured at baseline and 4 days after the administration of the test compound. Glucose levels were measured in blood samples drawn from the tail vein using a handheld glucose sensor. Compound effects on blood glucose are shown in Table 5 where A represents a 10-20% reduction in blood glucose, B represents a 21-30% reduction in blood glucose, and C represents a greater than 30% reduction in blood glucose levels.

CSM14.1 neuronal cells = test: Cell survival assay (thapsigargin-treated CSM14.1 neuronal cells, CELLTITER-GLO); format: cell-based; settings: 2 hrs compound pre-incubation, about 15 μM thapsigargin, overnight, luminescence
Protocol: CSM14.1 neuronal cells were maintained in Complete Medium at 32° C.; wherein the Complete Medium contained Dulbecco's modified eagle medium (DMEM) with 10% fetal bovine serum (FSB), 1% L-glutamine, 100 IU/mL penicillin, and 100 μg/mL streptomycin. The cells were recovered from cultures by trypsinization and then seeded in 384 well plates (Greiner #781098) at a concentration of 1,000 cells/well in 20 μL of DMEM Assay Medium, wherein the DMEM Assay Medium contained 2% FBS, 100 IU/mL penicillin, and 100 μg/mL streptomycin. Seeding was performed using a MultiDrop Combi reagent broadcaster. The plates were incubated overnight at 32° C. A test compound was prepared by 2-fold serial dilution in 100% DMSO using a BIOMEK® 2000 liquid handler (Beckman Coulter). A dose-response curve containing 10 concentrations of the test compound was obtained. Using a BIOMEK® FX liquid handler (Beckman Coulter), 2.5 μL of the test compound was transferred from the 100% DMSO serial dilution plate to an intermediate plate containing 47.5 μL of DMEM Assay Medium containing 2% FBS, 100 IU/mL penicillin, and 100 μg/mL streptomycin and mixed. To reduce or eliminate the interference from the compound's precipitation, 6 μL of the diluted compound was immediately transferred to the assay plate to achieve a high compound concentration of 100 µM in 99% DMEM Assay Medium and 1% DMSO. After the assay plates were incubated for 2 hrs, 4 μL of 112.5 μM thapsigargin (TG) (DMSO stock diluted into Assay TC Medium) was dispensed into each testing well with a MultiDrop Combi reagent broadcaster for a final concentration of about 15 μM TG. The tissue culture media (4 μL) containing vehicle only was transferred manually to each control cell using a 16 channel electronic pipette. After the plates were incubated overnight (about 16 to 24 hrs), CELLTITER-GLO® (Promega) (16 μL) was added to all wells and luminescence was measured. High luminescence indicates cell survival. The biological results are summarized in Table 1 where A represents a cell viability EC50 less than 10 μM and B represents a value greater than 10 μM and less than 20 μM.

SERCA = biological target: T1, SERCA (Homo sapiens, UniProt P16615); test: Ca-ATPase assay (NADH-linked, enzyme-coupled ATPase assay); format: biochemical; settings: microsomal preparations from HEK 293 cells, Vmax from Hill fit of ATPase calcium-dependence, relative to controls
T1 construct: microsomal preparations from HEK 293 cells; endogenous in cells; host or cells: HEK 293 cells (microsomal preparation)
T1 sequence (P16615 whole entry): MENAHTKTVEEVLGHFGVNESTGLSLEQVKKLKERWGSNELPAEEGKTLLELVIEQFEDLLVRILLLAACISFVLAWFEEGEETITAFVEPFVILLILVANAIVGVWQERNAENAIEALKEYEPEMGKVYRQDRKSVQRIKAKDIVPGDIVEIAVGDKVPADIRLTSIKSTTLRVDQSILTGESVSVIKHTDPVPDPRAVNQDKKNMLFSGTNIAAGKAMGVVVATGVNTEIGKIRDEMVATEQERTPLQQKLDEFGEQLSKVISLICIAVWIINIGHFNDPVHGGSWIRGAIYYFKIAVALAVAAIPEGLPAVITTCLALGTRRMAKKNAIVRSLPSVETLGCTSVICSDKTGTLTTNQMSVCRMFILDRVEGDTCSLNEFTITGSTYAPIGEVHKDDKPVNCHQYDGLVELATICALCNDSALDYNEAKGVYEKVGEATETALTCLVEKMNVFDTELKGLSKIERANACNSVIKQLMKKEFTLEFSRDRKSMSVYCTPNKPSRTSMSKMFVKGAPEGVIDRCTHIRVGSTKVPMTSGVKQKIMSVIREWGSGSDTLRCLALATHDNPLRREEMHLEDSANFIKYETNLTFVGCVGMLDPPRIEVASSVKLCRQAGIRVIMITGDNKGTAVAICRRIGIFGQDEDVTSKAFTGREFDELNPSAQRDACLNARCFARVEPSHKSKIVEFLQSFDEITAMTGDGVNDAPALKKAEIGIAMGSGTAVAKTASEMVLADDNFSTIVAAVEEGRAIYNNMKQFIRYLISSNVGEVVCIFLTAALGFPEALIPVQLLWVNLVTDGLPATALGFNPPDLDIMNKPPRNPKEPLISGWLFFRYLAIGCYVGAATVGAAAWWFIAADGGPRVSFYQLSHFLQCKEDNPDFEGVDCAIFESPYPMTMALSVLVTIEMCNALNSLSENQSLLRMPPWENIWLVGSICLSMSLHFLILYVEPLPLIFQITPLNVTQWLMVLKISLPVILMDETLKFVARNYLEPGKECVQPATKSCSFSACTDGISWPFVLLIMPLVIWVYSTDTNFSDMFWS
Protocol: A Ca-ATPase assay was performed using microsomal preparations from HEK 293 cells at a series of calcium concentrations corresponding to the physiological range, relative to controls. The ATP hydrolysis rate was measured over a range of calcium concentrations in the presence of test compounds using an NADH-linked, enzyme-coupled ATPase assay adapted for 96-well microplates, with Vmax determined by fitting the ATPase calcium-dependence to the Hill function. Each well contained 2 μg or 7 μg of SR vesicles (optimized for skeletal or cardiac SR, respectively), 50 mM MOPS (pH 7.0), 100 mM KCl, 5 mM MgCl2, 1 mM EGTA, 0.2 mM NADH, 1 mM phosphoenol pyruvate, 5 IU pyruvate kinase, 5 IU lactate dehydrogenase, and 3.5 μg/mL A23187 (a calcium ionophore). CaCl2 was added to set free [Ca^2+] to the specific values. The assay was started upon addition of ATP at a final concentration of 5 mM, and read in a SpectraMax Plus microplate spectrophotometer. The results are summarized in Table 4, where A represents an increase in SERCA Vmax greater than or equal to 50% and B represents a value greater than 10% and less than 50%.

[1] = tested on: Human embryonic kidney (HEK293) cells / mouse neuroblastoma (N2a) cells; test: Cell rescue assay: protection against thapsigargin (TG)-induced cell-death (ALAMARBLUE); format: cell-based; settings: compound 20 μM, 2 hrs before thapsigargin (15 μM HEK293, 1 μM N2a), 24 hrs, viability as % RFU of control, read-out: Cell Survival %
Protocol: Protection against Thapsigargin (TG)-induced Cell-death. Human embryonic kidney (HEK293) cells were grown in Dulbecco's Modified Eagle's Medium (DMEM) with 10% FBS and 1% antibiotic antimycotic solution (ABAM). Mouse neuroblastoma (N2a) cells were grown in 1:1 DMEM:OPTI-MEM® with 5% FBS and 1% ABAM. All cells were grown in 10% CO2 in a humidified environment of the incubator. Cells grown in 96-well plates were exposed to a test compound (20 μM) for 2 hrs before addition of thapsigargin (15 μM for HEK293 cells and 1 μM for N2a cells) to induce ER stress. After incubation in cell-culture incubator for 24 hrs, ALAMARBLUE® regent (10% v/v) was added to the wells. Fluorescence reading was taken 2 hrs after the addition of the ALAMARBLUE® regent. Cell-viability was calculated as a percentage of relative fluorescence unit (RFU) compared to control. […] The biological results are summarized in Table 2, where each compound was tested at 20 μM and where A represents a viability greater than 50%, B represents a viability greater than 10% and less than 50%, C represents a value below 10%.

Human SH-SY5Y cells = test: Cell rescue assay: protection against amyloid (AB1-42)-induced cell toxicity; format: cell-based; settings: 96 h, 7.5 uM compound (final), AB1-42 at 10 uM, 4 days, OD 490 nm, read-out: Cell Survival % (cell rescue)
Protocol: Protection against 1-amyloid-induced cell toxicity. Chonpathompikunlert et al. Eu. J. Pharmacol. 2011, 650, 544-549. Human SH-SY5Y cells are suspended in media containing 2% FBS and 2× Gentamicin. Transfer 100 ul/well culture to 96-well plate (20,000 cells/well; passage #5) and incubate overnight. Prepare compound samples at 30 uM. Add 50 ul of the samples to the cells [[…]] and incubate 3 hours. Make stock of 40 uM AB1-42 peptide in assay media. Transfer 50 ul/well to cells/compounds in assay plate. The final assay volume is 200 ul/well, containing 2% FBS, 2× Gentamicin, 7.5 uM compound and AB1-42 at 10 uM. Incubate for 4 days then add 20 ul of Promega Substrate Cell Titer 96 Aqueous One Solution Reagent to each well. Incubate 37° C. and read OD at 490 nm. The results are summarized in Table 3, where A represents a value greater than 40% cell rescue, B represents a value greater than 10% and less than or equal to 40% cell rescue, and C represents a value greater than 1% and less than or equal to 10% cell rescue.

| SMILES | inhibition in vivo at 50 mg/kg (Ob/ob mice) [%] | EC50 (CSM14.1 neuronal cells) [µM] | SERCA Vmax Increase (SERCA) | viability at 20 µM [1] [%] | viability at 7.5 µM (Human SH-SY5Y cells) [%] |
| --- | --- | --- | --- | --- | --- |
| Cc1ccc2cccc(NCc3ccc(C#N)cc3)c2n1 [C7, N-(4-Cyanobenzyl)-2-methylquinolin-8-amine] | 10 to 20 | 10 to 20 | B (B represents a value greater than 10% and less than 50%) | < 10 | 10 to 40 |
| Cc1ccc2cccc(NCc3ccc(Br)s3)c2n1 [C3, N-((5-Bromothiophen-2-yl)methyl)-2-methylquinolin-8-amine] | 21 to 30 | < 10 | B (B represents a value greater than 10% and less than 50%) | > 50 | > 40 |
| Cc1ccc2cccc(NCc3ccc(OC(C)C)cc3)c2n1 [C1, N-(4-Isopropoxybenzyl)-2-methylquinolin-8-amine] | > 30 | < 10 | B (B represents a value greater than 10% and less than 50%) | > 50 | > 40 |
| Cc1ccc2cccc(NCc3cc4ccccc4s3)c2n1 [C10, N-(Benzo[b]thiophen-2-ylmethyl)-2-methylquinolin-8-amine] | 21 to 30 | 10 to 20 | B (B represents a value greater than 10% and less than 50%) | 10 to 50 | 10 to 40 |
| COc1c(C)cccc1CNc1cccc2ccc(C)nc12 [C5, N-(2-Methoxy-3-methyl)-2-methylquinolin-8-amine] | 21 to 30 | 10 to 20 | A (A represents an increase in SERCA Vmax greater than or equal to 50%) | 10 to 50 | 1 to 10 |
| Cc1ccc2cccc(NCc3ccc(C)o3)c2n1 [C9, N-((5-Methylfuran-2-yl)methyl)-2-methylquinolin-8-amine] | 21 to 30 | 10 to 20 | B (B represents a value greater than 10% and less than 50%) | < 10 | 1 to 10 |
| Cc1ccc2cccc(NCc3ccc(C(F)(F)F)cc3)c2n1 [C6, N-(4-Trifluoromethylbenzyl)-2-methylquinolin-8-amine] | 10 to 20 | < 10 | B (B represents a value greater than 10% and less than 50%) | > 50 | > 40 |
| Cc1ccc2cccc(NCc3ccc(C)s3)c2n1 [C8, N-((5-Methylthiophen-2-yl)methyl)-2-methylquinolin-8-amine] | > 30 | < 10 | B (B represents a value greater than 10% and less than 50%) | 10 to 50 | > 40 |
| Cc1ccc2cccc(NCc3cc(Br)cs3)c2n1 [C2, N-((4-Bromothiophen-2-yl)methyl)-2-methylquinolin-8-amine] | 21 to 30 | < 10 | B (B represents a value greater than 10% and less than 50%) | 10 to 50 | 10 to 40 |
| Cc1ccc2cccc(NCc3ccc(Cl)cc3)c2n1 [C4, N-(4-Chlorobenzyl)-2-methylquinolin-8-amine] | 10 to 20 | < 10 | A (A represents an increase in SERCA Vmax greater than or equal to 50%) | > 50 | > 40 |
